Data from patent US10105357B2, “Indication of antibiotic drugs for preparation of cancer inhibition pharmaceutical composition” (LAUNX BIOMEDICAL CO., LTD., priority 2014, dated 2018).
Counter-ions that a name gives are not always drawn. Like-named read-outs stand apart in the source and are kept apart here.

Columns and labels:
[1] = tested on: A375 (Amelanotic Melanoma); assay: Cell viability analysis, skin cancer A375; assay type: cell-based, human; conditions: Homo sapiens, A-375, 72 h
[2] = tested on: LoVo (Colorectal Adenocarcinoma); assay: Cell viability analysis, colon cancer LoVo; assay type: cell-based, human; conditions: Homo sapiens, LoVo, 72 h
[3] = tested on: A549 (Lung Adenocarcinoma); assay: Cell viability analysis, lung cancer A549; assay type: cell-based, human; conditions: Homo sapiens, A549, 72 h
[4] = tested on: MKN-45 (Gastric Adenocarcinoma); assay: Cell viability analysis, gastric cancer MKN-45; assay type: cell-based, human; conditions: Homo sapiens, MKN-45, 72 h
[5] = tested on: MCF7 (Mammary Gland, Adenocarcinoma); assay: Cell viability analysis, breast cancer MCF7; assay type: cell-based, human; conditions: Homo sapiens, MCF7, 72 h
[6] = tested on: HI650 (Lung Adenocarcinoma); assay: Cell viability analysis, lung cancer HI650; assay type: cell-based, human; conditions: Homo sapiens, NCI-H1650, 72 h
[7] = tested on: HL-60 (Acute Promyelocytic Leukemia); assay: Cell viability analysis, leukemia HL-60; assay type: cell-based, human; conditions: Homo sapiens, HL-60, 72 h
[8] = tested on: HepG2 (Hepatocellular Carcinoma); assay: Cell viability analysis, hepatic cancer HepG2; assay type: cell-based, human; conditions: Homo sapiens, HepG2, 72 h
[9] = tested on: TSGH-8301 (Urinary Bladder Carcinoma); assay: Cell viability analysis, bladder cancer TSGH-8301; assay type: cell-based, human; conditions: Homo sapiens, 72 h
[10] = tested on: PC3 (p53−) (Prostate Adenocarcinoma); assay: Cell viability analysis, prostate cancer PC3; assay type: cell-based, human; conditions: Homo sapiens, 72 h
[11] = tested on: cancer cell lines; assay: Cell viability analysis (WST-1) on cancer cell lines; assay type: cell-based, human; conditions: drug 10 μM, 72 hours, WST-1; Table 3
[12] = tested on: HCT116 (p53+) (Colorectal Carcinoma); assay: cells; conditions: Homo sapiens, HCT-116, 72 h, read-out: cell viability (survival rate), HCT116
[13] = tested on: AGS (Gastric Adenocarcinoma); assay: Cell viability analysis, gastric cancer AGS; assay type: cell-based, human; conditions: Homo sapiens, 72 h
[14] = tested on: HeLa (Cervix Adenocarcinoma); assay: Cell viability analysis, cervical cancer HeLa; assay type: cell-based, human; conditions: Homo sapiens, HeLa, 72 h
[15] = read-out: cell viability (survival rate), A375, drug 10 μM, 72 hours, WST-1, OD450 nm
[16] = read-out: cell viability (survival rate), LoVo, drug 10 μM, 72 hours, WST-1, OD450 nm
[17] = read-out: cell viability (survival rate), A549, drug 10 μM, 72 hours, WST-1, OD450 nm
[18] = read-out: cell viability (survival rate), MKN-45, drug 10 μM, 72 hours, WST-1, OD450 nm
[19] = read-out: cell viability (survival rate), MCF7, drug 10 μM, 72 hours, WST-1, OD450 nm
[20] = read-out: cell viability (survival rate), H1650, drug 10 μM, 72 hours, WST-1, OD450 nm
[21] = read-out: cell viability (survival rate), HL-60, drug 10 μM, 72 hours, WST-1, OD450 nm
[22] = read-out: cell viability (survival rate), HepG2, drug 10 μM, 72 hours, WST-1, OD450 nm
[23] = read-out: cell viability (survival rate), TSGH, drug 10 μM, 72 hours, WST-1, OD450 nm
[24] = read-out: cell viability (survival rate), PC3, drug 10 μM, 72 hours, WST-1, OD450 nm
[25] = read-out: cell viability (survival rate), AGS, drug 10 μM, 72 hours, WST-1, OD450 nm
[26] = read-out: cell viability (survival rate), A375
[27] = read-out: cell viability (survival rate), LoVo
[28] = read-out: cell viability (survival rate), HeLa
[29] = read-out: cell viability (survival rate), A549
[30] = read-out: cell viability (survival rate), MKN-45
[31] = read-out: cell viability (survival rate), MCF7
[32] = read-out: cell viability (survival rate), H1650
[33] = read-out: cell viability (survival rate), HL-60
[34] = read-out: cell viability (survival rate), TSGH
[35] = read-out: cell viability (survival rate), PC3
[36] = read-out: cell viability (survival rate), AGS
[37] = read-out: cell viability (survival rate), HeLa, drug 10 μM, 72 hours, WST-1, OD450 nm
[38] = drug 10 μM, 72 hours, WST-1, OD450 nm, read-out: cell viability (survival rate), A375
[39] = drug 10 μM, 72 hours, WST-1, OD450 nm, read-out: cell viability (survival rate), HeLa
[40] = drug 10 μM, 72 hours, WST-1, OD450 nm, read-out: cell viability (survival rate), A549
[41] = drug 10 μM, 72 hours, WST-1, OD450 nm, read-out: cell viability (survival rate), MKN-45
[42] = drug 10 μM, 72 hours, WST-1, OD450 nm, read-out: cell viability (survival rate), MCF7
[43] = drug 10 μM, 72 hours, WST-1, OD450 nm, read-out: cell viability (survival rate), H1650
[44] = drug 10 μM, 72 hours, WST-1, OD450 nm, read-out: cell viability (survival rate), HL-60
[45] = drug 10 μM, 72 hours, WST-1, OD450 nm, read-out: cell viability (survival rate), HepG2
[46] = drug 10 μM, 72 hours, WST-1, OD450 nm, read-out: cell viability (survival rate), TSGH
[47] = drug 10 μM, 72 hours, WST-1, OD450 nm, read-out: cell viability (survival rate), PC3
[48] = drug 10 μM, 72 hours, WST-1, OD450 nm, read-out: cell viability (survival rate), AGS

Row | Compound | viability at 10 µM [1, 15] | viability at 10 µM [2, 16] | viability at 10 µM [3, 17] | viability at 10 µM [4, 18] | viability at 10 µM [5, 19] | viability at 10 µM [6, 20] | viability at 10 µM [8, 22] | viability at 10 µM [9, 23] | viability at 10 µM [10, 24] | inhibition effect on different cancer cell lines [11] | viability at 10 µM [12] | viability at 10 µM [13, 25] | viability at 10 µM [1, 38] | viability at 10 µM [14, 39] | viability at 10 µM [3, 40] | viability at 10 µM [4, 41] | viability at 10 µM [5, 42] | viability at 10 µM [6, 43] | viability at 10 µM [7, 44] | viability at 10 µM [8, 45] | also measured
1 | CN(C)c1ccc(O)c2c1C[C@H]1C[C@H]3[C@H](N(C)C)C(O)=C(C(N)=O)C(=O)[C@@]3(O)C(O)=C1C2=O [Minocycline HCl] | 81.6% | 87.3% | 42.5% | 95% | 49.9% | 74% | 103% | 60.4% | 53.8% | significant inhibition effect | 105% | 87.6% |  |  |  |  |  |  |  |  | viability at 10 µM [7, 21]: 68.1%
2 | Cl.NCCc1ccc(O)c(O)c1 [Dopamine hydrochloride (Inotropin), Dopamine hydrochloride] |  |  |  |  |  |  |  |  |  | significant inhibition effect | 90.6% |  |  |  |  |  |  |  |  |  | viability at 10 µM [1, 26]: 83%; viability at 10 µM [2, 27]: 84.3%; viability at 10 µM [14, 28]: 85.1%; viability at 10 µM [3, 29]: 102%; viability at 10 µM [4, 30]: 85%; viability at 10 µM [5, 31]: 148%; viability at 10 µM [6, 32]: 76%; viability at 10 µM [7, 33]: 91.5%; viability at 10 µM [9, 34]: 57.7%; viability at 10 µM [10, 35]: 115%; viability at 10 µM [13, 36]: 74.3%
3 | CCn1nc(C(=O)O)c(=O)c2cc3c(cc21)OCO3 [Cinoxacin] | 68.3% | 97% | 74.2% | 98.9% | 74.9% | 67.1% | 69.7% | 71.5% | 87% | significant inhibition effect | 66.2% | 83.2% |  |  |  |  |  |  |  |  | viability at 10 µM [14, 37]: 64%; viability at 10 µM [7, 21]: 109%
4 | O=C([O-])c1ccccc1O.[Na+] [Sodium salicylate] |  |  |  |  |  |  |  |  |  | significant inhibition effect | 73.5% |  |  |  |  |  |  |  |  |  | viability at 10 µM [1, 26]: 74.9%; viability at 10 µM [2, 27]: 102%; viability at 10 µM [14, 28]: 94.4%; viability at 10 µM [3, 29]: 107%; viability at 10 µM [4, 30]: 77.9%; viability at 10 µM [5, 31]: 89%; viability at 10 µM [6, 32]: 90.1%; viability at 10 µM [7, 33]: 94.7%; viability at 10 µM ([8]; read-out: cell viability (survival rate), HepG2): 84.3%; viability at 10 µM [9, 34]: 137%; viability at 10 µM [10, 35]: 87.9%; viability at 10 µM [13, 36]: 82.1%
5 | CN1CCN(c2cc3c(cc2F)c(=O)c(C(=O)O)cn3-c2ccc(F)cc2)CC1 [Difloxacin HCl] |  | 95.7% |  |  |  |  |  |  |  | significant inhibition effect | 96.7% |  | 58.5% | 130% | 64.5% | 79.4% | 52.3% | 77.5% | 77% | 71.2% | viability at 10 µM [9, 46]: 52%; viability at 10 µM [10, 47]: 77.3%; viability at 10 µM [13, 48]: 82.9%
6 | NC[C@H]1O[C@H](O[C@H]2[C@H](O)[C@@H](O[C@H]3O[C@H](CO)[C@@H](O)[C@H](N)[C@H]3O)[C@H](N)C[C@@H]2N)[C@H](N)[C@@H](O)[C@@H]1O [Bekanamycin] |  | 96.9% |  |  |  |  |  |  |  | significant inhibition effect | 73.6% |  | 55.5% | 95.2% | 58.3% | 74.5% | 57.5% | 80.8% | 96.8% | 85.3% | viability at 10 µM [9, 46]: 76.2%; viability at 10 µM [10, 47]: 76.3%; viability at 10 µM [13, 48]: 81.7%
7 | CC(C)(O/N=C(\C(=O)N[C@@H]1C(=O)N2C(C(=O)[O-])=C(C[n+]3ccccc3)CS[C@H]12)c1csc(N)n1)C(=O)O [Ceftazidime Pentahydrate] |  | 72.5% |  |  |  |  |  |  |  | significant inhibition effect | 89.5% |  | 87.7% | 70% | 26.7% | 94.6% | 35.5% | 58.5% | 89.3% | 93.6% | viability at 10 µM [9, 46]: 78.7%; viability at 10 µM [10, 47]: 38.5%; viability at 10 µM [13, 48]: 53.5%
8 | CO[C@@]1(NC(=O)C(C(=O)O)c2ccc(O)cc2)C(=O)N2C(C(=O)O)=C(CSc3nnnn3C)CO[C@@H]21 (stereo partly shown) [Moxalactam Disodium] | 80.8% | 94% | 76.6% | 110% | 80.7% | 66.9% | 79.1% | 55.9% | 95% | significant inhibition effect | 73.9% | 76.9% |  |  |  |  |  |  |  |  | viability at 10 µM [14, 37]: 61.3%
9 | CCn1cc(C(=O)O)c(=O)c2cnc(N3CCCC3)nc21 [Piromidic Acid] | 86.7% | 95.2% | 80.5% | 100% | 99.5% | 67.2% | 73.8% | 90.5% | 107% | significant inhibition effect | 89.8% | 85.9% |  |  |  |  |  |  |  |  | viability at 10 µM [14, 37]: 95.5%; viability at 10 µM [7, 21]: 95.2%
10 | CC(=O)Nc1ncc([N+](=O)[O-])s1 [Nithiamide] |  | 89.8% |  |  |  |  |  |  |  |  | 86.9% |  | 96.7% | 83% | 39.3% | 76.7% | 65.5% | 67.1% | 102% | 94.8% | viability at 10 µM [9, 46]: 122%; viability at 10 µM [10, 47]: 74.5%; viability at 10 µM [13, 48]: 102%
